Experimental data published in patent US5496856A, “Aspartame for its application as a therapeutically active substance” (priority 1993, dated 1996).

What was measured:
all animal species = details: cited from earlier work; for toxicity: background statement
[1] = cited from earlier work; for efficacy in treatment of ochratoxicosis: doses of the order of several grams per day
DNA = DNA adducts by postlabeling with ATP gamma 32P in organs (genotoxicity); type: in vivo, rats; details: OTA 289 μg/kg every 48 h, 3 weeks
Method: The animals used in this experiment are male rats of the Wistar strain weighing 160±10 g.
The aspartame is administered by gavage, at the same time as the ochratoxin A, every 48 hours for 3 weeks.
The control and treated rats are placed in a metabolic cage for 24 hours for urine sampling and then sacrificed.
The organs of the same animals were used for extraction of the DNA, which was analyzed by the technique of postlabeling with ATP gamma 32P in order to evaluate the genotoxicity by the presence of adducts with DNA bases.

human plasma proteins [2] = assay: OTA binding to human plasma proteins, condition (i): aspartame in upper (plasma) compartment; type: in vitro ADME
Method: (§1) A further study was performed in order to determine the effect of aspartame on OTA binding on human plasma proteins in vitro.
(§2) An in-vitro study was performed on plasma samples obtained from healthy human volunteers, from a French blood bank (Centre de transfusion sanguine in Bordeaux), using citrate as anticoagulant. Blood samples were centrifuged at 1800 g for 30 minutes. This pooled human plasma contained 41±3 g of proteins per liter.
(§3) Static diffusion cells (polypropylene, homemade according to the model provided by Nalgene, USA) containing two compartments (upper and lower) separated by a dialysing membrane having a 10 000 D exclusion limit (Sigma Chemical, USA) were used. This membrane allows OTA and aspartame diffusion and not protein diffusion.
(§4) A human plasma sample was placed in the upper compartment and a medium (RPMI 1640, Sigma chemical, USA) in the lower one.
(§5) The plasma binding properties of OTA were evaluated under two different conditions:
(i) The aspartame at a concentration of 10 μg/ml was added in the upper compartment containing human plasma proteins before introducing OTA at three different concentrations (20, 100, and 500 μg/ml) in the lower compartment;
(§6) OTA concentration in the upper compartment was determined by HPLC (Mobile phase: methanol, acetonitrile, acetic acid, sodium acetate 5 mM (300: 300: 400: 14 v/v/v/v); injection volume 50 μl; flow rate 1 ml/min; run time for one cycle: 10 min and fluorescence detection (excitation at 340 nm and emission at 465 nm).
(§7) Before extraction of OTA from the plasma, all the studied samples of plasma, which had already fixed OTA, were dialysed against free OTA RPMI medium for at least 15 minutes, one or several times, until no more OTA was found in the lower compartment.
(§8) The results obtained under condition (i) as defined hereinabove are reported in Table I, whereas the results obtained under condition (ii) are reported in Table II.

human plasma proteins [3] = assay: OTA binding to human plasma proteins, condition (ii): OTA with or without aspartame in lower compartment; type: in vitro ADME
Method: as §1, §2, §3, §4, §5
(ii) The upper compartment contained human plasma proteins only and OTA (20, 100 and 500 μg/ml) was added into the lower compartment alone or concommitantly with 10 μg/ml aspartame.
as §6, §7, §8
Under condition (ii) (Table II), the aspartame was put in the same compartment as OTA in the non-plasmatic compartment to mimic the stomach (the ration OTA/aspartame=1.5 to 36).

## C[C@@H]1Cc2ccc(C(=O)N[C@@H](Cc3ccccc3)C(=O)O)c(O)c2C(=O)O1 [ochratoxin B]
All animal species
  toxicity: does not seem to be toxic

## N[C@@H](Cc1ccccc1)C(=O)O [phenylalanine]
[1]; chronic intoxication
  action in chronic intoxication: very inadequate, if not non-existent
[1]
  efficacy in treatment of ochratoxicosis: not totally satisfactory
[1]; in vivo and in vitro
  acute toxic effects of OTA and inhibition of protein synthesis: makes it possible to prevent the acute toxic effects and the inhibition of protein synthesis

## O=C(O)O [sodium bicarbonate]
[1]
  efficacy in treatment of ochratoxicosis: still poor

## C[C@@H]1Cc2c(Cl)cc(C(=O)N[C@@H](Cc3ccccc3)C(=O)O)c(O)c2C(=O)O1 [OTA, chlorodihydroisocoumarinylphenylalanine, reference compound]
DNA
  DNA adducts in organs (liver, kidney, spleen, etc.), OTA-treated animals: Adducts are detected in large numbers
Human plasma proteins [2]; OTA 20 μg/ml, 30 min
  Quantities of OTA bound to plasma proteins, OTA alone (Table I): 215 ± 11 ng/mL
Human plasma proteins [2]; OTA 20 μg/ml, 60 min
  Quantities of OTA bound to plasma proteins, OTA alone (Table I): 431 ± 18 ng/mL
Human plasma proteins [2]; OTA 20 μg/ml, 120 min
  Quantities of OTA bound to plasma proteins, OTA alone (Table I): 772 ± 25 ng/mL
Human plasma proteins [2]; OTA 100 μg/ml, 30 min
  Quantities of OTA bound to plasma proteins, OTA alone (Table I): 442 ± 21 ng/mL
Human plasma proteins [2]; OTA 100 μg/ml, 60 min
  Quantities of OTA bound to plasma proteins, OTA alone (Table I): 739 ± 17 ng/mL
Human plasma proteins [2]; OTA 100 μg/ml, 120 min
  Quantities of OTA bound to plasma proteins, OTA alone (Table I): 1231 ± 17 ng/mL
Human plasma proteins [2]; OTA 500 μg/ml, 30 min
  Quantities of OTA bound to plasma proteins, OTA alone (Table I): 556 ± 15 ng/mL
Human plasma proteins [2]; OTA 500 μg/ml, 60 min
  Quantities of OTA bound to plasma proteins, OTA alone (Table I): 1175 ± 71 ng/mL
Human plasma proteins [2]; OTA 500 μg/ml, 120 min
  Quantities of OTA bound to plasma proteins, OTA alone (Table I): 1744 ± 112 ng/mL
Human plasma proteins [3]; OTA 20 μg/ml, 30 min
  Quantities of OTA bound to plasma proteins, OTA alone (Table II): 163 ± 42 ng/mL
Human plasma proteins [3]; OTA 20 μg/ml, 60 min
  Quantities of OTA bound to plasma proteins, OTA alone (Table II): 488 ± 41 ng/mL
Human plasma proteins [3]; OTA 20 μg/ml, 120 min
  Quantities of OTA bound to plasma proteins, OTA alone (Table II): 774 ± 43 ng/mL
Human plasma proteins [3]; OTA 100 μg/ml, 30 min
  Quantities of OTA bound to plasma proteins, OTA alone (Table II): 491 ± 39 ng/mL
Human plasma proteins [3]; OTA 100 μg/ml, 60 min
  Quantities of OTA bound to plasma proteins, OTA alone (Table II): 983 ± 48 ng/mL
Human plasma proteins [3]; OTA 100 μg/ml, 120 min
  Quantities of OTA bound to plasma proteins, OTA alone (Table II): 1296 ± 61 ng/mL
Human plasma proteins [3]; OTA 500 μg/ml, 30 min
  Quantities of OTA bound to plasma proteins, OTA alone (Table II): 539 ± 41 ng/mL
Human plasma proteins [3]; OTA 500 μg/ml, 60 min
  Quantities of OTA bound to plasma proteins, OTA alone (Table II): 1347 ± 92 ng/mL
Human plasma proteins [3]; OTA 500 μg/ml, 120 min
  Quantities of OTA bound to plasma proteins, OTA alone (Table II): 1899 ± 89 ng/mL

## C[C@@H]1Cc2c(Cl)cc(C(=O)N[C@@H](Cc3ccc(O)cc3)C(=O)O)c(O)c2C(=O)O1 [Tyrosine-OTA]
All animal species; metabolite of OTA, Creppy et al., Arch. Toxicol. 64, 279-284 (1990)
  genotoxic effects: seems to be one of the metabolites responsible for the genotoxic effects

## CCOC(=O)[C@H](Cc1ccccc1)NC(=O)c1cc(Cl)c2c(c1O)C(=O)O[C@H](C)C2 [ochratoxin C, ethyl ester of ochratoxin A]
All animal species
  toxicity: effects comparable to those of ochratoxin A
